Measured values from the supplement of paper PMC10307832.

Key:
Test in all cases: relative viability (nuclei count vs DMSO), 5 days (fraction); higher = more cells survive
[1] = compound: CC1=CC(=CC=C1)NC2=NC(=CS2)C3=CC=NC=C3 + Cc1nc(NC(=O)N2CCC[C@H]2C(N)=O)sc1-c1ccnc(C(C)(C)C(F)(F)F)c1 [Alpelisib] (partner 2 µM)
In short: (§1)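 A single step with final 0.05% Triton X-100, 1% formaldehyde and 1 ug/ml Hoechst fixed the cells and stained nuclei 5 days after treatment. Lung cancer cell lines in 1536-well plates had been treated by pin tool the day after seeding with one drug alone or a fixed anchor-drug dose plus five library-drug doses (not always all listed) in √10 steps, and nuclei were counted on 4× images. Relative viability is the ratio of nuclei in treated wells to nuclei in vehicle wells, taken as the median of duplicate plates.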

Masitinib + Foretinib = compound: Cc1ccc(NC(=O)c2ccc(CN3CCN(C)CC3)cc2)cc1Nc1nc(-c2cccnc2)cs1 [Masitinib] + COc1cc2c(Oc3ccc(NC(=O)C4(C(=O)Nc5ccc(F)cc5)CC4)cc3F)ccnc2cc1OCCCN1CCOCC1 [Foretinib] (partner 0.25 µM)
In short: as §1

[2] = compound: CC1=CC(=CC=C1)NC2=NC(=CS2)C3=CC=NC=C3 + Cc1nc(Nc2ncc(C(=O)Nc3c(C)cccc3Cl)s2)cc(N2CCN(CCO)CC2)n1 [Dasatinib] (partner 0.075 µM)
In short: as §1

Masitinib + Crizotinib = compound: Cc1ccc(NC(=O)c2ccc(CN3CCN(C)CC3)cc2)cc1Nc1nc(-c2cccnc2)cs1 [Masitinib] + C[C@@H](Oc1cc(-c2cnn(C3CCNCC3)c2)cnc1N)c1c(Cl)ccc(F)c1Cl [Crizotinib] (partner 1 µM)
In short: as §1

Cell Line | relative viability ([1]; first compound 0.08 µM) | relative viability ([1]; first compound 0.253 µM) | relative viability ([1]; first compound 0.8 µM) | relative viability ([1]; first compound 2.53 µM) | relative viability ([1]; first compound 8 µM) | relative viability (Masitinib + Foretinib; first compound 0.01 µM) | relative viability (Masitinib + Foretinib; first compound 0.03162 µM) | relative viability (Masitinib + Foretinib; first compound 0.1 µM) | relative viability (Masitinib + Foretinib; first compound 0.3162 µM) | relative viability (Masitinib + Foretinib; first compound 1 µM) | relative viability ([2]; first compound 0.08 µM) | relative viability ([2]; first compound 0.253 µM) | relative viability ([2]; first compound 0.8 µM) | relative viability ([2]; first compound 2.53 µM) | relative viability ([2]; first compound 8 µM) | relative viability (Masitinib + Crizotinib; first compound 0.01 µM) | relative viability (Masitinib + Crizotinib; first compound 0.03162 µM) | relative viability (Masitinib + Crizotinib; first compound 0.1 µM) | relative viability (Masitinib + Crizotinib; first compound 0.3162 µM) | relative viability (Masitinib + Crizotinib; first compound 1 µM)
NCI-H2087 | 0.931 | 1.14 | 0.772 | 1.29 | 0.932 | 1.26 | 0.907 | 1.18 | 1.11 | 1.17 | 0.67 | 0.804 | 0.742 | 0.778 | 0.796 | 0.669 | 0.913 | 0.899 | 0.891 | 0.951
NCI-H2126 | 0.664 | 0.689 | 0.727 | 0.71 | 0.634 | 1.08 | 0.97 | 1.08 | 1.35 | 1.02 | 0.533 | 0.433 | 0.505 | 0.466 | 0.4 | 1.02 | 1.09 | 1.05 | 1.07 | 0.993
NCI-H2170 | 0.706 | 0.691 | 0.639 | 0.707 | 0.555 | 1.05 | 1.04 | 1.16 | 1.02 | 0.994 | 0.581 | 0.574 | 0.609 | 0.564 | 0.489 | 1.38 | 1.18 | 1.37 | 1.3 | 1.11
NCI-H2228 | 0.476 | 0.644 | 0.612 | 0.688 | 0.502 | 0.672 | 0.763 | 0.838 | 0.861 | 0.777 | 0.402 | 0.605 | 0.468 | 0.433 | 0.445 | 0.417 | 0.481 | 0.717 | 0.415 | 0.669
NCI-H2347 | 0.821 | 1.11 | 0.614 | 1.07 | 0.993 | 1.02 | 0.847 | 1.09 | 0.787 | 1.15 | 0.274 | 0.301 | – | 0.388 | 0.389 | 0.731 | 0.759 | 0.891 | 0.707 | 0.688
NCI-H2405 | 0.679 | 0.799 | 0.578 | 0.87 | 0.699 | 0.943 | 1.02 | 0.98 | 0.963 | 1.05 | 0.202 | 0.176 | 0.15 | 0.16 | 0.22 | 0.77 | 0.784 | 0.848 | 0.802 | 0.746
NCI-H3122 | 0.724 | 0.794 | 0.843 | 1.01 | 0.923 | 0.89 | 1 | 1.05 | 1.01 | 0.887 | 0.78 | 0.821 | 1.05 | 0.819 | 0.77 | 0.26 | 0.252 | 0.306 | 0.217 | 0.253
PC-3 [JPC-3] | 0.95 | 0.939 | 0.845 | 0.875 | 0.84 | 1.03 | 0.98 | 1.02 | 1.02 | 1 | 0.974 | 0.95 | 0.881 | 0.87 | 0.939 | 1.02 | 0.974 | 0.975 | 0.968 | 1.01
PC-14 | 0.942 | 0.988 | 0.851 | 0.989 | 0.94 | 0.809 | 0.831 | 0.857 | 0.957 | 0.949 | 0.237 | 0.247 | 0.27 | 0.225 | 0.178 | 0.787 | 0.817 | 0.901 | 0.723 | 0.829
RERF-LC-KJ | 1.01 | 0.83 | 0.773 | 0.715 | 0.654 | 0.734 | 0.883 | 0.987 | 0.746 | 0.797 | 0.533 | 0.694 | 0.64 | 0.573 | 0.515 | 0.853 | 0.901 | 0.79 | 0.755 | 0.759
SK-LU-1 | 0.955 | 0.934 | 0.617 | 0.992 | 0.852 | 0.803 | 0.815 | 0.95 | 0.945 | 0.931 | 0.144 | 0.201 | – | 0.219 | 0.224 | 0.832 | 0.884 | 0.983 | 1.01 | 0.756
SK-MES-1 | 0.626 | 0.862 | 0.893 | 0.853 | 0.848 | 1 | 0.861 | 1.1 | 0.572 | 0.841 | 0.276 | 0.256 | 0.327 | 0.279 | 0.235 | 0.912 | 1.01 | 1.02 | 1.02 | 0.983
SW 1573 | 0.746 | 0.744 | 0.593 | 0.732 | 0.625 | 0.765 | 0.974 | 0.97 | 0.784 | 0.865 | 0.612 | 0.369 | 0.612 | 0.603 | 0.432 | 0.761 | 0.786 | 0.754 | 0.718 | 0.778
